Measurements: EP4810052A2, “HCRHR2 SELECTIVE POLYPEPTIDES” (Gubra A/S, priority 2023, dated 2026)
Where two headings read alike, the source gives them in different places. Starred links: 1 amine or outer side, 2 acyl side, 3 side chain; linkers in the order of their positions; H or OH if unused. Non-standard residues stand in square brackets, D forms with d. Residues, ends and D or L forms follow the SMILES beside them. Groups on a side chain read outwards from the residue. *: point of attachment. C20 diacid = O=C(O)CCCCCCCCCCCCCCCCCCC(=O)*; γGlu = O=C(O)[C@H](CCC(=O)[*:2])N[*:1]; NMeI = CC[C@H](C)[C@H](NC)C(=O)O; Nle = CCCC[C@H](N)C(=O)O; AEEA = NCCOCCOCC(=O)O; Aib = CC(C)(N)C(=O)O

Tests used:
hCRHR1 = target: T1, hCRHR1 (Homo sapiens, UniProt P34998); experiment: HTRF cAMP assay, determination of hCRHR1 potency (peptide libraries 5 conc., purified peptides 11 conc.); format: cell-based
T1 sequence (P34998 24-415): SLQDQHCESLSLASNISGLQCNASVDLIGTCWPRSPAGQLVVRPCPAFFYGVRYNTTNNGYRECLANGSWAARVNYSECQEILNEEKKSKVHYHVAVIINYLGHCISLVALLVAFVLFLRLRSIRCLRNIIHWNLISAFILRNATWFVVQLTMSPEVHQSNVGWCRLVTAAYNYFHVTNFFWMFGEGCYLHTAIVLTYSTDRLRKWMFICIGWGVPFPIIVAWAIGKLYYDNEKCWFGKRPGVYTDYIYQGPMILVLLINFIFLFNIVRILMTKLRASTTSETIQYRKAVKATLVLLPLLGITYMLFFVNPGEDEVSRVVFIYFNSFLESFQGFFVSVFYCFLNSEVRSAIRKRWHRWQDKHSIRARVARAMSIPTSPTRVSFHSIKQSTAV
Method in brief: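 CHO-K1 cells stably expressing human CRHR1, thawed from frozen stocks just before use, were stimulated in suspension with agonist peptides. cAMP was measured by HTRF competitive immunoassay (cryptate anti-cAMP antibody vs d2-cAMP).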

hCRHR2 = target: T2, hCRHR2 (Homo sapiens, UniProt Q13324); experiment: HTRF cAMP assay, determination of hCRHR2 potency (peptide libraries 5 conc., purified peptides 11 conc.); format: cell-based
T2 sequence (Q13324 1-411): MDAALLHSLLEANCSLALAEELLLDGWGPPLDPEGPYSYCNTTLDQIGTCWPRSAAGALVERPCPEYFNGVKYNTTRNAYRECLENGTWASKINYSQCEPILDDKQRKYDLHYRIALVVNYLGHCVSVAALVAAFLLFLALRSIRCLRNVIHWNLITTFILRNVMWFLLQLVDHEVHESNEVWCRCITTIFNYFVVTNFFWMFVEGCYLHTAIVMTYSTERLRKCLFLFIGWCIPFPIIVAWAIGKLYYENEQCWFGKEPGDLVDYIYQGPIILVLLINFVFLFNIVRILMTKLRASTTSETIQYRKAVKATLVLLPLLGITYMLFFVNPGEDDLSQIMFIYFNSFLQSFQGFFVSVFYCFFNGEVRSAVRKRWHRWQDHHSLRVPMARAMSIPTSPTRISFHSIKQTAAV
Method in brief: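 CHO-K1 cells stably expressing human CRHR2 were thawed from frozen stocks immediately before use and assayed in suspension with agonist peptides. cAMP was measured by time-resolved FRET in a competitive immunoassay between cryptate-labelled anti-cAMP antibody and d2-labelled cAMP. EC50 values came from nonlinear regression, sigmoid variable-slope fit.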

[1] = library peptides, matched molecular pairs L vs Nle in position X^38, read-out: Potency hCRHR1 pEC50 (converted)
[2] = library peptides, matched molecular pairs L vs Nle in position X^38, read-out: Potency hCRHR2 pEC50 (converted)
[3] = Table 4, library peptides having X^38 = Nle, read-out: hCRHR1 pEC50 (converted)
[4] = Table 4, library peptides having X^38 = Nle, read-out: hCRHR2 pEC50 (converted)

SMILES	EC50 (hCRHR1; [1]) [nM]	EC50 (hCRHR2; [2]) [nM]	EC50 (hCRHR1; [3]) [nM]	EC50 (hCRHR2; [4]) [nM]	also measured
CCCC[C@H](NC(=O)[C@@H](NC(=O)[C@H](CCC(=O)O)NC(=O)[C@H](C)NC(=O)[C@H](CC(N)=O)NC(=O)[C@@H](NC(=O)[C@H](CCCCNC(=O)COCCOCCNC(=O)COCCOCCNC(=O)CC[C@H](NC(=O)CC[C@H](NC(=O)CCCCCCCCCCCCCCCCCCC(=O)O)C(=O)O)C(=O)O)NC(=O)[C@H](C)NC(=O)[C@H](CCC(=O)O)NC(=O)[C@H](CCC(=O)O)NC(=O)[C@H](CCCNC(=N)N)NC(=O)[C@H](CC(C)C)NC(=O)[C@H](C)NC(=O)[C@H](CCCNC(=N)N)NC(=O)[C@H](C)NC(=O)[C@H](CCCNC(=N)N)NC(=O)[C@H](C)NC(=O)[C@H](CCC(N)=O)NC(=O)[C@H](CCC(=O)O)NC(=O)[C@H](CC(C)C)NC(=O)[C@H](CC(C)C)NC(=O)[C@@H](NC(=O)[C@H](CCC(N)=O)NC(=O)[C@H](CC(C)C)NC(=O)[C@H](CC(C)C)NC(=O)CNC(=O)[C@@H](NC(=O)[C@@H]1CCCN1C(=O)[C@@H](NC(=O)[C@H](CC(=O)O)NC(=O)[C@H](CC(C)C)NC(=O)[C@H](CO)NC(=O)[C@H](CC(C)C)NC(=O)[C@@H](NC(=O)[C@@H](N)[C@@H](C)CC)C(C)C)C(C)C)[C@@H](C)CC)[C@@H](C)CC)[C@@H](C)O)[C@@H](C)CC)C(=O)N[C@@H](C)C(=O)N[C@@H](CCC(=O)O)C(=O)N[C@H](C(N)=O)C(C)C [compound 51] (H-IVLSLDVPIGLLQILLEQARARALREEAK([AEEA-AEEA-γGlu-γGlu-C20 diacid])TNAEI[Nle]AEV-NH2)	126000	0.794			
CC[C@H](C)[C@H](N)C(=O)N[C@H](C(=O)N[C@@H](CC(C)C)C(=O)N[C@@H](CO)C(=O)N[C@@H](CC(C)C)C(=O)N[C@@H](CC(=O)O)C(=O)N[C@H](C(=O)N1CCC[C@H]1C(=O)N[C@H](C(=O)NCC(=O)N[C@@H](CC(C)C)C(=O)N[C@@H](CC(C)C)C(=O)N[C@@H](CCC(N)=O)C(=O)N[C@H](C(=O)N[C@@H](CC(C)C)C(=O)N[C@@H](CC(C)C)C(=O)N[C@@H](CCC(=O)O)C(=O)N[C@@H](CCC(N)=O)C(=O)N[C@@H](C)C(=O)N[C@@H](CCCNC(=N)N)C(=O)N[C@@H](C)C(=O)N[C@@H](CCCNC(=N)N)C(=O)N[C@@H](C)C(=O)N[C@@H](C)C(=O)N[C@@H](CCCNC(=N)N)C(=O)N[C@@H](CCC(=O)O)C(=O)N[C@@H](CCC(N)=O)C(=O)N[C@@H](C)C(=O)N[C@@H](CCCCNC(=O)COCCOCCNC(=O)COCCOCCNC(=O)CC[C@H](NC(=O)CC[C@H](NC(=O)CCCCCCCCCCCCCCCCCCC(=O)O)C(=O)O)C(=O)O)C(=O)N[C@H](C(=O)N[C@@H](CC(N)=O)C(=O)N[C@@H](C)C(=O)N[C@@H](CCC(=O)O)C(=O)N[C@H](C(=O)N[C@@H](CC(C)C)C(=O)N[C@@H](C)C(=O)N[C@@H](CCC(=O)O)C(=O)N[C@H](C(N)=O)[C@@H](C)CC)[C@@H](C)CC)[C@@H](C)O)[C@@H](C)CC)[C@@H](C)CC)C(C)C)C(C)C [compound 68] (H-IVLSLDVPIGLLQILLEQARARAAREQAK([AEEA-AEEA-γGlu-γGlu-C20 diacid])TNAEILAEI-NH2)	63100	0.251			
CCCC[C@H](NC(=O)[C@@H](NC(=O)[C@H](CCC(=O)O)NC(=O)[C@H](C)NC(=O)[C@H](CC(N)=O)NC(=O)[C@@H](NC(=O)[C@H](CCCCNC(=O)COCCOCCNC(=O)COCCOCCNC(=O)CC[C@H](NC(=O)CC[C@H](NC(=O)CCCCCCCCCCCCCCCCCCC(=O)O)C(=O)O)C(=O)O)NC(=O)[C@H](C)NC(=O)[C@H](CCC(N)=O)NC(=O)[C@H](CCC(N)=O)NC(=O)[C@H](CCCNC(=N)N)NC(=O)[C@H](CCC(N)=O)NC(=O)[C@H](C)NC(=O)[C@H](CCCNC(=N)N)NC(=O)[C@H](C)NC(=O)[C@H](CCCNC(=N)N)NC(=O)[C@H](C)NC(=O)[C@H](CCC(N)=O)NC(=O)[C@H](CCC(=O)O)NC(=O)[C@H](CC(C)C)NC(=O)[C@H](CC(C)C)NC(=O)[C@@H](NC(=O)[C@H](CCC(N)=O)NC(=O)[C@H](CC(C)C)NC(=O)[C@H](CC(C)C)NC(=O)CNC(=O)[C@@H](NC(=O)[C@@H]1CCCN1C(=O)[C@@H](NC(=O)[C@H](CC(=O)O)NC(=O)[C@H](CC(C)C)NC(=O)[C@H](CO)NC(=O)[C@H](CC(C)C)NC(=O)[C@@H](NC(=O)[C@@H](N)[C@@H](C)CC)C(C)C)C(C)C)[C@@H](C)CC)[C@@H](C)CC)[C@@H](C)O)[C@@H](C)CC)C(=O)N[C@@H](C)C(=O)N[C@@H](CCC(=O)O)C(=O)N[C@H](C(N)=O)C(C)C [SEQ ID NO: 47] (H-IVLSLDVPIGLLQILLEQARARAQRQQAK([AEEA-AEEA-γGlu-γGlu-C20 diacid])TNAEI[Nle]AEV-NH2)					EC50 (hCRHR1; Table 3, matched molecular pairs X^38 L vs Nle, peptide library of Example 4, read-out: hCRHR1 pEC50 (converted)): 63.1 nM; EC50 (hCRHR2; Table 3, matched molecular pairs X^38 L vs Nle, peptide library of Example 4, read-out: hCRHR2 pEC50 (converted)): 0.2 nM

Further lines, with some results ahead:

EC50 (hCRHR1; [1]) [nM]	EC50 (hCRHR2; [2]) [nM]	EC50 (hCRHR1; [3]) [nM]	EC50 (hCRHR2; [4]) [nM]	SMILES	also measured
		1000	0.0158	CCCC[C@H](NC(=O)[C@@H](NC(=O)[C@H](CCC(=O)O)NC(=O)[C@H](C)NC(=O)[C@H](CC(N)=O)NC(=O)C(C)(C)NC(=O)[C@H](CCCCNC(=O)COCCOCCNC(=O)COCCOCCNC(=O)CC[C@H](NC(=O)CC[C@H](NC(=O)CCCCCCCCCCCCCCCCCCC(=O)O)C(=O)O)C(=O)O)NC(=O)[C@H](C)NC(=O)[C@H](CCC(N)=O)NC(=O)[C@H](CCC(=O)O)NC(=O)[C@H](CCCNC(=N)N)NC(=O)[C@H](C)NC(=O)[C@H](C)NC(=O)[C@H](CCCNC(=N)N)NC(=O)[C@H](C)NC(=O)[C@H](CCCNC(=N)N)NC(=O)[C@H](C)NC(=O)[C@H](CCC(N)=O)NC(=O)[C@@H](NC(=O)[C@H](CC(C)C)NC(=O)[C@H](CC(C)C)NC(=O)[C@@H](NC(=O)[C@H](CCC(N)=O)NC(=O)[C@H](CC(C)C)NC(=O)[C@H](CC(C)C)NC(=O)CNC(=O)[C@@H](NC(=O)[C@@H]1CCCN1C(=O)[C@@H](NC(=O)[C@H](CC(=O)O)NC(=O)[C@H](CC(C)C)NC(=O)[C@H](CO)NC(=O)[C@H](CC(C)C)NC(=O)[C@@H](NC(=O)[C@@H](NC)[C@@H](C)CC)C(C)C)C(C)C)[C@@H](C)CC)[C@@H](C)CC)C(C)C)[C@@H](C)CC)C(=O)N[C@@H](C)C(=O)N[C@@H](CCC(=O)O)C(=O)N[C@H](C(N)=O)C(C)C [compound 138] (H-[NMeI]VLSLDVPIGLLQILLVQARARAAREQAK([AEEA-AEEA-γGlu-γGlu-C20 diacid])[Aib]NAEI[Nle]AEV-NH2)	
		1000	0.0398	CCCC[C@H](NC(=O)[C@@H](NC(=O)[C@H](CCC(=O)O)NC(=O)C(C)(C)NC(=O)[C@H](CC(N)=O)NC(=O)[C@@H](NC(=O)[C@H](CCCCNC(=O)COCCOCCNC(=O)COCCOCCNC(=O)CC[C@H](NC(=O)CC[C@H](NC(=O)CCCCCCCCCCCCCCCCCCC(=O)O)C(=O)O)C(=O)O)NC(=O)[C@H](C)NC(=O)[C@H](CCC(N)=O)NC(=O)[C@H](CCC(=O)O)NC(=O)[C@H](CCCNC(=N)N)NC(=O)[C@H](C)NC(=O)[C@H](C)NC(=O)[C@H](CCCNC(=N)N)NC(=O)[C@H](C)NC(=O)[C@H](CCCNC(=N)N)NC(=O)[C@H](C)NC(=O)[C@H](CCC(N)=O)NC(=O)[C@H](Cc1c[nH]cn1)NC(=O)[C@H](CC(C)C)NC(=O)[C@H](CC(C)C)NC(=O)[C@@H](NC(=O)[C@H](CCC(N)=O)NC(=O)[C@H](CC(C)C)NC(=O)[C@H](CC(C)C)NC(=O)CNC(=O)[C@@H](NC(=O)[C@@H]1CCCN1C(=O)[C@@H](NC(=O)[C@H](CC(=O)O)NC(=O)[C@H](CC(C)C)NC(=O)[C@H](CO)NC(=O)[C@H](CC(C)C)NC(=O)[C@@H](NC(=O)[C@@H](NC)[C@@H](C)CC)C(C)C)C(C)C)[C@@H](C)CC)[C@@H](C)CC)[C@@H](C)O)[C@@H](C)CC)C(=O)N[C@@H](C)C(=O)N[C@@H](CCC(=O)O)C(=O)N[C@H](C(N)=O)C(C)C [compound 207] (H-[NMeI]VLSLDVPIGLLQILLHQARARAAREQAK([AEEA-AEEA-γGlu-γGlu-C20 diacid])TN[Aib]EI[Nle]AEV-NH2)	
